Measured values from PubChem BioAssay AID850 (SRMLSC, 2007).
Active and inactive are the calls of the source. How the calls were made is not given here.

Experiments:
[1] = concentration-response yeast growth inhibition under permissive conditions, counter-assay for yeast lifespan-shortening chemical project (AID 850); conditions: Saccharomyces cerevisiae growth inhibition, permissive control, measured here: maximum growth inhibition, stronger effect = higher value;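 further: growth read as optical density after one day of incubation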
[2] = test system: Saccharomyces cerevisiae growth inhibition, permissive control; experiment: as above

| SMILES | inhibition ([1]; at 50 µM) [%] | IC50 [2] | further results |
| --- | --- | --- | --- |
| O=C(O)CSc1cccc[n+]1[O-] | 94.2 | 28.7 µM | – |
| COc1ccc(C(=O)C(C)(C)NO)cc1 | 50.7 | 46.8 µM | – |
| CCSc1nnc(NC(=O)c2ccccn2)s1 | 97.8 | 12.7 µM | – |
| Cc1nc2ccccc2c2c1C(=O)N(C)C2=O | – | > 100 µM (inactive) | inhibition ([1]; at 12.5 µM): 20.3% |
| CCCS(=O)(=O)c1nnnn1-c1cccc(OC)c1 | 99 | 5.29 µM | – |
| CC(=O)Oc1ccc(N2C(=O)C3C(C2=O)C2(C)C=CC3(C)O2)cc1 (stereo not drawn) | – | > 100 µM (inactive) | inhibition ([1]; at 0.195 µM): 3.93% |
| CCCCN(CCCC)C(=S)N/N=C/c1c(C)[nH]n(-c2ccccc2)c1=O | – | > 100 µM (inactive) | inhibition ([1]; at 0.781 µM): 19.7% |
| O=C(OCn1ncc(Cl)c(Cl)c1=O)c1cccc(C(F)(F)F)c1 | 12.7 | > 100 µM (inactive) | – |
| Oc1ccc(CN2CCCCC2)c2cccnc12 | 37.4 | 51.8 µM | – |
| Nc1ccc(O)c2c1C(=O)c1ccccc1C2=O | – | > 100 µM (inactive) | inhibition ([1]; at 25 µM): 16.4% |
| CCN1CCN(C(=O)C(NS(=O)(=O)c2ccc3nc(C)sc3c2)C(C)C)CC1 (stereo not drawn) | – | > 100 µM (inactive) | inhibition ([1]; at 0.098 µM): 16.9% |
| COC(=O)c1ccc(C(=O)OC)c(NC(=O)CSc2cccc[n+]2[O-])c1 | – | 1.09 µM | inhibition [1]: 100% |
| O=[N+]([O-])c1ccc(Sc2nc3ccccc3o2)c([N+](=O)[O-])c1 | 48.3 | 50.1 µM | – |
| N/C(Cc1ccc(Cl)cc1)=N\OC(=O)c1cccc2ccccc12 | 99.6 | 44.3 µM | – |
| Cc1ccc(-n2c(C)cc(C(=O)COC(=O)c3ccc[nH]c3=O)c2C)cc1 | 67 | 27.7 µM | – |
| CC(C)CN=Cc1c(O)c([N+](=O)[O-])cc2oc3c(c12)CCCC3 | 60.1 | 41 µM | – |
| Cc1ccc(/C=C/C(=O)c2ccccc(=O)c2O)cc1C | – | 4.5 µM | inhibition ([1]; at 25 µM): 98.9% |
| COc1ccc(NCc2nc3ccccc3n2CCOc2ccc(C)cc2)cc1 | 52.7 | 42.2 µM | – |
| COc1ccc(S(=O)(=O)n2oc(=O)cc2-c2ccccc2)cc1OC | – | > 100 µM (inactive) | inhibition ([1]; at 1.563 µM): 9.27% |
| CCOc1ccccc1C1CC(c2ccc(Br)cc2)Nc2nc(N)nn21 (stereo not drawn) | – | > 100 µM (inactive) | inhibition ([1]; at 0.781 µM): 10.2% |
| Oc1c(Br)cc(Br)cc1/C=N/c1nc2c(s1)CCCC2 | 98.5 | 5.27 µM | – |
| Cc1cc(=O)[nH]c(-n2nc(C)cc2C)n1 | 99.6 | 15.4 µM | – |

| SMILES | inhibition ([1]; at 50 µM) [%] | IC50 [2] | further results |
| --- | --- | --- | --- |
| CC1=C(C)CC2C(=O)N(c3cccc4ccccc34)C(=O)C2C1 (stereo not drawn) | 8.57 | > 100 µM (inactive) | – |
| CCOC(=O)c1cc([N+](=O)[O-])c([N+](=O)[O-])cc1NC(C)=O | – | < 0.098 µM | inhibition ([1]; at 12.5 µM): 99.6% |
| Cc1ccc2c(c1)C(=NC1CCCCC1)c1cc3ccccc3nc1-2 | – | > 100 µM (inactive) | inhibition ([1]; at 12.5 µM): 22.8% |
| Cc1nc2c(c(C)c1C#N)C(=O)c1ccccc1-2 | 16 | > 100 µM (inactive) | – |
| Cc1cc(C)nc(N/N=C/C2=C(N3CCOCC3)C(=C\c3ccc(Cl)cc3)/CC2)n1 | – | > 100 µM (inactive) | inhibition ([1]; at 3.125 µM): 5.26% |
| CCCCCCN1N=C(C)C(C(=O)c2ccc(Cl)cc2)C1=O (stereo not drawn) | 75 | 24.5 µM | – |
| Cc1ccc(C(C[N+](=O)[O-])n2nc(C)cc2C)cc1 (stereo not drawn) | 99.2 | 13 µM | – |
| c1ccc(-c2nc3nonc3nc2-c2ccccc2)cc1 | – | > 100 µM (inactive) | inhibition ([1]; at 1.563 µM): -1.92% |
| O=C1OCC(CO)(CO)N=C1NNc1ccccc1Cl | – | 3.49 µM | inhibition ([1]; at 25 µM): 98.4% |
| COc1ccc(-c2cc(=O)n(-c3nc4ccccc4[nH]3)[nH]2)cc1 | 98.2 | 14.6 µM | – |
| CCc1oc2ccccc2c1C(=O)c1cc(Br)c(O)c(Br)c1 | 87.7 | 36.1 µM | – |
| Cc1ccc(NN2C(=O)C=C(c3ccc(Cl)cc3)C2=O)cc1 | 98 | 9.53 µM | – |
| CCCCCCOC(=O)Sc1nc2ccccc2o1 | 99 | 11.7 µM | – |
| CC(C)(C)c1nnc(N/N=C/c2cc(Br)ccc2O)n(N)c1=O | 50.9 | 49.9 µM | – |
| Cc1ccc(O)c(-c2cc(-c3cccc(F)c3)n[nH]2)c1 | 96.9 | 25 µM | – |
| COc1ccc(-c2nnc3sc(C(C)N4C(=O)c5ccccc5C4=O)nn23)cc1 (stereo not drawn) | – | > 100 µM (inactive) | inhibition ([1]; at 6.25 µM): 14% |
| CC(C)c1ccc2c(c1)C1(NN=C(c3ccccc3)S1)C(=O)N2 (stereo not drawn) | 49.5 | 49.5 µM | – |
| CSC1=NSC2=NC(=O)/C(=C/c3coc4ccccc4c3=O)C(=N)N12 | 28.3 | > 100 µM (inactive) | – |
| CCC(=O)c1c(O)n(C2CCCCCC2)c(=O)[nH]c1=O | 91 | 29 µM | – |
| COc1ccccc1OCCN1CSC(=S)N(C)C1 | 82.4 | 17.2 µM | – |
| CCOC(=O)/C(=N\Nc1ccccc1Cl)N1CCN(Cc2ccccc2)CC1 | 73.9 | 26.8 µM | – |
| O/N=C/c1ccc(OCc2ccccc2)c(Br)c1 | – | > 100 µM (inactive) | inhibition ([1]; at 0.781 µM): 11.2% |
